Among the test systems are SF-268 CNS; NCI-H23 lung; MALME-3M melanoma; NCI-H226 lung; RXF 393 renal; OVCAR-3 ovarian; 786-0 renal; OVCAR-5 ovarian; NCI-H460 lung; A549 NSCLC.
Holding throughout (assay): DTP human tumour cell line panel, 48 h

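Assay format: 96-well plates, 48-hour exposure. Abbreviation: GI50, concentration required for 50% inhibition of growth. The concentration for full growth arrest is given as TGI.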 Some results are limits rather than exact numbers.

A word on the GI50: it is the concentration that inhibits growth by half. For orientation: TGI means the concentration giving total growth inhibition. `N.N.N.N.N.O=C([O-])c1nn[n-]n1.[Cl-].[Co+3]`: the GI50 in the assay with SF-268 CNS, with NCI-H23 lung, in the assay on MALME-3M melanoma, with NCI-H226 lung, with RXF 393 renal and in the assay on OVCAR-3 ovarian was greater than 100 µM each time. The GI50 in the assay with 786-0 renal, in the assay on OVCAR-5 ovarian, in the assay on NCI-H460 lung and in the assay with A549 NSCLC was greater than 100 µM each time. The TGI in the assay on SF-268 CNS, with NCI-H23 lung, in the assay with MALME-3M melanoma, with NCI-H226 lung, in the assay with RXF 393 renal and with OVCAR-3 ovarian was greater than 100 µM throughout. Besides, the TGI in the assay with 786-0 renal, with OVCAR-5 ovarian, in the assay on NCI-H460 lung and in the assay on A549 NSCLC was greater than 100 µM each time.

Regarding `NC1=NN(c2ccccc2)C(=O)C1C(=O)CCC(=O)Nc1cccc(C(F)(F)F)c1` (stereo not given), the TGI with SF-268 CNS, in the assay with NCI-H23 lung, in the assay on MALME-3M melanoma, with NCI-H226 lung, with RXF 393 renal and in the assay with OVCAR-3 ovarian was greater than 100 µM in each case. The total growth inhibition concentration (TGI) with 786-0 renal, in the assay on OVCAR-5 ovarian, in the assay on NCI-H460 lung and in the assay on A549 NSCLC was greater than 100 µM each time.

For `COc1cc(C2=NN(C(C)=O)C(c3ccc(OC(C)=O)cc3OC(C)=O)O2)c(OC(C)=O)c2ccccc12` (stereo not given), the GI50 in the assay with SF-268 CNS was 0.465 µM; in the assay on NCI-H23 lung it was 2.55 µM; in the assay on MALME-3M melanoma, 1.83 µM; in the assay on NCI-H226 lung, 1.15 µM; with RXF 393 renal it was 1 µM; in the assay on OVCAR-3 ovarian, 0.402 µM. Moreover, the GI50 is 0.902 µM in the assay with 786-0 renal, 5.64 µM in the assay with OVCAR-5 ovarian, 1.15 µM in the assay on NCI-H460 lung and 1.57 µM in the assay on A549 NSCLC. Also, the TGI is greater than 24.4 µM in the assay with SF-268 CNS; greater than 78.9 µM in the assay on NCI-H23 lung; 20.5 µM with MALME-3M melanoma; 14.4 µM in the assay with NCI-H226 lung; 12.5 µM in the assay with RXF 393 renal; 13.9 µM with OVCAR-3 ovarian. Also, the TGI is 12.7 µM in the assay with 786-0 renal, greater than 66.8 µM with OVCAR-5 ovarian, greater than 33.4 µM with NCI-H460 lung and 28.4 µM with A549 NSCLC.

In the case of `CCN(CC)c1ccc(C(=N)c2ccc(N(CC)CC)cc2)cc1`, the GI50 in the assay on SF-268 CNS is 0.602 µM; in the assay on NCI-H23 lung it was 0.26 µM; in the assay on MALME-3M melanoma, 0.714 µM; with NCI-H226 lung it was 0.669 µM; with RXF 393 renal, 0.731 µM; with OVCAR-3 ovarian it was 0.27 µM. Moreover, the GI50 in the assay with 786-0 renal is 0.646 µM; with OVCAR-5 ovarian it was 1.53 µM; with NCI-H460 lung, 0.411 µM; in the assay on A549 NSCLC, 0.625 µM. Further, the TGI in the assay on SF-268 CNS worked out at 2.67 µM; in the assay on NCI-H23 lung, 0.925 µM; with MALME-3M melanoma, 2.48 µM; in the assay on NCI-H226 lung it was 2.57 µM; in the assay on RXF 393 renal, 2.45 µM; in the assay with OVCAR-3 ovarian, 0.995 µM. In addition, the TGI in the assay with 786-0 renal stood at 2.05 µM; in the assay with OVCAR-5 ovarian it was 6.07 µM; in the assay on NCI-H460 lung it was 1.56 µM; with A549 NSCLC, 5.94 µM.

For the compound `CCCCN=C(N)c1ccc(OCCSCCOc2ccc(C(N)=NCCCC)cc2)cc1`, the GI50 with SF-268 CNS is 5.32 µM; with NCI-H23 lung, 2.87 µM; with MALME-3M melanoma it was 2.97 µM; in the assay with NCI-H226 lung, 65.4 µM; in the assay with RXF 393 renal it was 43.2 µM; with OVCAR-3 ovarian, 4.97 µM. Besides, the GI50 with 786-0 renal is greater than 100 µM; with OVCAR-5 ovarian, 46.1 µM; with NCI-H460 lung it was 3.17 µM; in the assay with A549 NSCLC it was 4.47 µM. For the same compound, the concentration for total growth inhibition (TGI) in the assay with SF-268 CNS was greater than 100 µM; in the assay with NCI-H23 lung, greater than 100 µM; in the assay on MALME-3M melanoma, 26.4 µM; in the assay with NCI-H226 lung, greater than 100 µM; in the assay on RXF 393 renal, greater than 100 µM; in the assay with OVCAR-3 ovarian, greater than 100 µM. In addition, the concentration for total growth inhibition (TGI) in the assay on 786-0 renal, with OVCAR-5 ovarian, in the assay with NCI-H460 lung and with A549 NSCLC was greater than 100 µM each time.

In the case of `O=c1cccccc1NCCCNc1cccccc1=O`, the total growth inhibition concentration (TGI) in the assay on SF-268 CNS is greater than 100 µM; in the assay on NCI-H23 lung, greater than 100 µM; in the assay with MALME-3M melanoma, 39.2 µM; in the assay on NCI-H226 lung it was greater than 100 µM; in the assay with RXF 393 renal, greater than 100 µM; in the assay on OVCAR-3 ovarian, greater than 100 µM. Besides, the TGI in the assay with 786-0 renal, in the assay with OVCAR-5 ovarian, with NCI-H460 lung and in the assay on A549 NSCLC was greater than 100 µM in each case.

On to `CCOC(=O)Sc1ncnc2nc[nH]c12`, for which the GI50 with SF-268 CNS is 3.89 µM; in the assay on NCI-H23 lung, 3.93 µM; in the assay with MALME-3M melanoma it was 27.1 µM; in the assay with NCI-H226 lung, 4.46 µM; in the assay on RXF 393 renal, 15.1 µM; in the assay with OVCAR-3 ovarian it was 0.474 µM. In addition, the GI50 in the assay with 786-0 renal was 2.31 µM; in the assay with OVCAR-5 ovarian, 4.49 µM; with NCI-H460 lung, 5.75 µM; in the assay with A549 NSCLC, 25.9 µM. The TGI with SF-268 CNS, with NCI-H23 lung, with MALME-3M melanoma, in the assay on NCI-H226 lung, in the assay on RXF 393 renal and with OVCAR-3 ovarian was greater than 100 µM each time. The TGI in the assay with 786-0 renal, with OVCAR-5 ovarian, with NCI-H460 lung and in the assay with A549 NSCLC was greater than 100 µM throughout.

The record behind these values is PubChem BioAssay (NCI).
